Tests used:
Oryctolagus cuniculus = species on record: Oryctolagus cuniculus; test: Anti-platelet activity was measured by studying their antagonist effects on rabbit platelets aggregated with U-46,619.; format: functional
Homo sapiens = species on record: Homo sapiens; test: Anti-platelet activity was measured by studying their antagonist effects on human platelets aggregated with collagen; format: functional

An IC50 (Oryctolagus cuniculus) of 900 nM and an IC50 (Homo sapiens) of 20000 nM were found for CCCCCC(O)c1cccc(/C=C\CCCC(=O)O)c1 (stereo not given) in this work.

An IC50 (Oryctolagus cuniculus) of 500 nM and an IC50 (Homo sapiens) of 27000 nM were found for CCCCCC(O)c1cccc(CCCCCC(=O)O)c1 (stereo not given) in this work.

An IC50 (Oryctolagus cuniculus) of 1600 nM and an IC50 (Homo sapiens) of 57000 nM were found for CCCCCC(O)c1cccc(/C=C\CCCC(=O)O)n1 (stereo not given) in this work.

An IC50 (Oryctolagus cuniculus) of 4000 nM was found for CCCCC/C=C\C[C@@H](O)/C=C/C=C\C/C=C\CCCC(=O)O in this work.

An IC50 (Oryctolagus cuniculus) of 500 nM and an IC50 (Homo sapiens) of 7000 nM were found for CCCCCC(=O)c1cccc(/C=C\CCCC(=O)O)c1 in this work.

An IC50 (Homo sapiens) of 50 nM was found for O=C(O)CCn1c2c(c3ccccc31)CC(NS(=O)(=O)c1ccc(F)cc1)CC2 (single isomer, unassigned) [RAMATROBAN] in this work.

From ChEMBL document CHEMBL1136030, “Synthesis and antiaggregant properties of Stabilized analogues of polyunsaturated fatty acid metabolites” (Bioorg Med Chem Lett, 2002)
